Results taken from US5792622A, “Assay for chemicals” (priority 1995, dated 1998).
Converted amounts (≈) assume the structure as drawn. Read-outs that look alike come from different tables or passages of the source.

How the values were obtained:
R. meliloti [1] = assay: microbe, parasite or virus in culture; format: cell-based
[2] = Protocol: Solid phenol was dissolved in water and added to the reaction tubes.
R. meliloti [3] = conditions: cited from earlier work
R. meliloti NSI = assay: Inhibition of growth of R. meliloti NSI; format: cell-based; conditions: read-out: concentration inhibiting growth 50%
Protocol: Typically, R. meliloti is grown in medium with 10-20 uM calcium. Magnesium sulfate, at 59.9 ppm, is 0.2435 mM. The medium MDM contains 0.6 mm Magnesium chloride; this is a concentration found in most defined media. […] CDM, the medium used in the experiments with the assay of the invention, is 0.81 mM with respect to magnesium.

E. coli = assay: Inhibition of tetrazolium dye reduction by E. coli; format: cell-based
Protocol: The other strains of bacteria, mixed in a buffer with various toxic chemicals, which were tested with the tetrazolium dye, gave varying results. Some bacteria reduced the dye, but the reduction was not inhibited appreciably by toxic chemicals. The absorbance of tetrazolium by Rhodobacter sphaeroides was not inhibited by copper. E. coli reduced the dye, but reduction was not inhibited by xylene. […] FIG. 1 is a graph showing data comparing the absorbance of the bacteria R. meliloti and E. coli at A590 varying between 0.0 and 0.3 in reacting with different toxins.

[4] = Table 9; cited from earlier work

Compound: ClC(Cl)(Cl)Cl [Carbon tetrachloride]
- IC50 (R. meliloti [1]; Sinorhizobium meliloti, Table 4, organic compounds, read-out: average (ppm), concentration giving 50% inhibition of dye reduction): 3530 µg/mL (≈ 22.9 mM)
- miscibility in water [2]: very immiscible in water

Compound: N#CC(C#N)=NNc1ccc(OC(F)(F)F)cc1 [FCCP, carbonyl-cyanide p(triflouromethoxy)phenylhydrozone]
- IC50 (R. meliloti [1]): only a few μl
- IC50 (R. meliloti [1]; Sinorhizobium meliloti, read-out: average (ppm), concentration giving 50% inhibition of dye reduction): 0.114 µg/mL (≈ 0.000449 mM)
- inhibition of tetrazolium reduction compared with DNP (R. meliloti [3]): at a much lower concentration than does DNP

Compound: [Cl-].[Cl-].[Mg+2] [MgCl2, Magnesium chloride]
- IC50 (R. meliloti NSI): 26.9 mM

Compound: Xylene
- ppm (50% inhibition of reduction) (R. meliloti [1]; Table 5, 10,000 ppm stock method): 151 ppm
- ppm (50% inhibition of reduction) (R. meliloti [1]; Table 5, QSAR method: aqueous phase assayed, hydrocarbon in water estimated by QSAR solubility model): 30.3 ppm
- ppm (50% inhibition of reduction) (R. meliloti [1]; Table 5, direct method): 476 ppm
- Rhizobium/Tetrazolium ppm (R. meliloti [1]; Table 9): 146-452 ppm
- sensitivity of Rhizobium/Tetrazolium assay compared with Microtox assay (R. meliloti [1]; ratio of the inhibitory concentrations): at least an order of magnitude more sensitive than the Rhizobium/Tetrazolium assay
- inhibition of dye reduction (E. coli): not inhibited
- Microtox ppm [4]: .70-9.25 ppm
